Source: PubChem BioAssay (NCI)
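Five compound concentrations were applied to cells in 96-well plates for 48 hours; endpoints were derived by simple linear interpolation of the resulting dose-response curve. Abbreviation: GI50, concentration required for 50% inhibition of growth. TGI is the concentration that stops growth completely.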

Legend:
Test in all cases: growth of human tumour cells (NCI), 48 h
[1] = system: HCT-116 colon
[2] = system: HT29 colon
[3] = system: MALME-3M melanoma
[4] = system: MCF7 breast
[5] = system: NCI-H226 lung
[6] = system: OVCAR-3 ovarian
[7] = system: SF-539 CNS
[8] = system: SNB-19 CNS
[9] = system: UO-31 renal
[10] = system: OVCAR-4 ovarian
[11] = system: UACC-62 melanoma

SMILES | TGI [1] | TGI [2] | TGI [3] | TGI [4] | TGI [5] | TGI [6] | TGI [7] | TGI [8] | TGI [9] | TGI [10] | TGI [11] | GI50 [1] | GI50 [2] | GI50 [4] | GI50 [6] | GI50 [7] | GI50 [8] | GI50 [11]
O=S(=O)(N=S(c1ccccc1)c1ccccc1)c1ccccc1 | > 100 µM | > 100 µM | > 100 µM | > 100 µM | > 100 µM | > 100 µM | > 100 µM | > 100 µM | > 100 µM |  |  |  |  |  |  |  |  | 
Cc1ccc(N=Nc2c(O)ccc3cc(S(=O)(=O)O)cc(S(=O)(=O)O)c23)cc1 | > 100 µM |  | > 100 µM | > 100 µM | > 100 µM | > 100 µM | > 100 µM | > 100 µM | > 100 µM | > 100 µM | > 100 µM |  |  |  |  |  |  | 
O=C1/C(=N/O)Cc2c(Br)ccc(Br)c21 | > 100 µM | > 100 µM |  | > 100 µM | > 100 µM | 70.3 µM | > 100 µM |  | > 100 µM | > 100 µM |  |  |  |  |  |  |  | 
O=C(O)c1ccc([N+](=O)[O-])c2cc3cnccc3nc12 | 33 µM | 57.3 µM | 42.2 µM | 38.7 µM | 61.6 µM | 36.4 µM |  |  | 43.7 µM |  | 24.8 µM |  |  |  |  |  |  | 
COC1C=CC(O)C(CO)O1 (stereo not drawn) | > 100 µM | > 100 µM | > 100 µM |  |  | > 100 µM | > 100 µM |  | > 100 µM | > 100 µM | > 100 µM |  |  |  |  |  |  | 
NN/C(=N\S(=O)(=O)c1cc2ccccc2s1)Nc1ccc(Cl)cc1 | 30.6 µM | 38.9 µM |  | 42.4 µM | 36.5 µM | 34.5 µM | 29.8 µM | 64.6 µM | 32.1 µM | 38.5 µM | 35.5 µM |  |  |  |  |  |  | 
Cc1ccc(-c2c(C#N)c(-c3ccc(Cl)cc3)c(C#N)c(=O)n2NS(=O)(=O)c2ccc(C)cc2)cc1 | 50.6 µM | > 100 µM | > 100 µM | 36.5 µM | > 100 µM |  | 50.1 µM | > 100 µM |  | > 100 µM | 45 µM |  |  |  |  |  |  | 
CN1CCC(O)(C(C)(C)C)CC1 | > 100 µM | > 100 µM | > 100 µM | > 100 µM | > 100 µM | > 100 µM |  | > 100 µM | > 100 µM | > 100 µM | > 100 µM |  |  |  |  |  |  | 
CNc1ccc(C(=O)CC(O)CCC(C)C2OC(=O)CC(O)CC(=O)CC(O)CC(O)CC(O)CC(O)CC3(O)CC(O)C(C(=O)OC)C(CC(O[C@@H]4O[C@H](C)[C@@H](O)[C@H](N)[C@@H]4O)/C=C/C=C/C=C/C=C/C=C/C=C/C=C/C2C)O3)cc1 (stereo partly drawn) | > 100 µM | 24.7 µM |  | 19 µM |  | 6.26 µM | 47.9 µM | > 100 µM |  |  | > 100 µM | 3.46 µM | 3.63 µM | 3.18 µM | 2730 nM | 13.6 µM | 3.82 µM | 2490 nM
O=C1/C(=C/c2ccc([N+](=O)[O-])cc2)C(=O)N(c2ccccc2)C1c1ccccc1 (stereo not drawn) | > 10 µM | > 10 µM |  | > 10 µM | > 10 µM | > 10 µM | > 10 µM | > 10 µM | > 10 µM | > 10 µM | > 10 µM |  |  |  |  |  |  | 
Cc1cccc(N=NC(=O)NNc2cccc(C)c2C)c1C | 72.2 µM | > 100 µM | 73.3 µM |  | > 100 µM | > 100 µM |  | > 100 µM | > 100 µM | > 100 µM | > 100 µM |  |  |  |  |  |  | 
COC1=C(OC)C(=O)C(Cc2c(C)nc3sc(C)cn23)=C(C)C1=O | 49.9 µM | 40.6 µM | 37.3 µM | 59.9 µM |  | 35.6 µM | 32.4 µM | 36.5 µM | 31.6 µM | 23.1 µM | 27.4 µM |  |  |  |  |  |  | 
CCOC(=O)CNc1c(OCc2ccccc2)c(=O)c1=O | > 100 µM | > 100 µM | > 100 µM | > 100 µM | > 100 µM | > 100 µM |  | > 100 µM | > 100 µM | > 100 µM | > 100 µM |  |  |  |  |  |  | 
O=Cc1ccc(OCc2cccc(COc3ccc(/C=N\Nc4ccc([N+](=O)[O-])cc4[N+](=O)[O-])cc3)n2)cc1 | > 100 µM | > 100 µM | > 100 µM | > 100 µM | > 100 µM | > 100 µM |  | > 100 µM | > 100 µM | > 100 µM | > 100 µM |  |  |  |  |  |  | 
O=C(NI1OC(=O)c2ccccc21)c1ccc(Cl)cc1 | > 100 µM | > 100 µM |  | > 100 µM | > 100 µM | > 100 µM | > 100 µM |  | > 100 µM | > 100 µM | > 100 µM |  |  |  |  |  |  | 
NC(N)=N/N=C/c1c[nH]c2ccccc12 |  | > 100 µM | > 100 µM |  | > 100 µM | > 100 µM | > 100 µM | > 100 µM | > 100 µM | > 100 µM | > 100 µM |  |  |  |  |  |  | 
CCOC(=O)/C=C(/C(=O)OCC)n1ccc(=O)n(Cc2cn(COCCOC(C)=O)nn2)c1=O | 80.8 µM | 31.9 µM |  | 28.3 µM | > 100 µM | 33.4 µM | 34.5 µM | > 100 µM | 31.9 µM | 42.7 µM | 36.7 µM |  |  |  |  |  |  | 
Cn1c2c(c3ccccc31)CC1c3c(c4ccccc4n3C)CC21 (stereo not drawn) |  | > 100 µM | > 100 µM | > 100 µM | > 100 µM | > 100 µM | > 100 µM | > 100 µM | > 100 µM | > 100 µM | > 100 µM |  |  |  |  |  |  | 
CC12C(=O)CC(CC1=O)C2(C)C | > 100 µM | > 100 µM | > 100 µM | > 100 µM | > 100 µM | > 100 µM |  | > 100 µM | > 100 µM | > 100 µM | > 100 µM |  |  |  |  |  |  | 
CCOc1cn(C2CC(O)C(CO)O2)c(=O)[nH]c1=O (stereo not drawn) | > 100 µM | > 100 µM | > 100 µM | > 100 µM | > 100 µM | > 100 µM |  | > 100 µM | > 100 µM | > 100 µM | > 100 µM |  |  |  |  |  |  | 
CC(C)[Si](OC1=C(C(=O)N(C)c2cccc(Cl)c2)CCCC1)(C(C)C)C(C)C |  | 31.1 µM | 24.9 µM | 29.2 µM | 37.7 µM | 27.6 µM | 40.4 µM | 31 µM | 27.9 µM | 26 µM | 30.8 µM |  |  |  |  |  |  | 
